Where “and” joins values, the source holds several entries; their conditions need not be identical. Identical values can stand only once. Entries after “also recorded” stand apart in the source; their conditions may differ. Like-named read-outs stand apart in the source and are kept apart here.
Tests used:
animals = conditions: LD50/ED50; cited from earlier work
[1] = in-vitro metabolism in pooled human S9 liver fraction; conditions: for half-life at 10 μM: human, s9; for rate of metabolism relative to (R)-etomidate: liver enzymes, S9
rats [2] = conditions: rat, in vivo, iv
rats [3] = assay: loss of righting reflex (LORR) in rats after IV bolus; assay type: in vivo; conditions: for ED50: Rattus norvegicus; for ED50 / slope of duration of LORR versus logarithm of anesthetic dose: rats, IV bolus; for anesthetic toxicity in rats: highest doses
Procedure: Rats were briefly restrained in a 3 inch diameter, 9 inch long acrylic chamber with a tail exit port. The desired dose of anesthetic was injected through a lateral tail vein catheter followed by an approximately 1 ml normal saline flush. Immediately after injection, rats were removed from the restraint device and turned supine. […] A stop-watch was used to measure the duration of LORR, which was defined as the time from drug injection until the animal spontaneously righted itself. The ED50 for LORR upon bolus anesthetic administration was determined from the anesthetic dose-dependence of LORR.

rats [4] = assay: heart rate and blood pressure in rats at equianesthetic doses; conditions: for increase in heart rate shortly after injection / duration of significant effect on mean blood pressure / maximum decrease in mean blood pressure relative to baseline: IV, twice ED50 for LORR; for maximum decrease in mean blood pressure relative to baseline: n=3
Xenopus laevis tadpoles [5] = assay: tadpole loss of righting reflex assay
rats [6] = assay: ACTH1-24-stimulated serum corticosterone in rats (adrenocortical function); conditions: 30 min after equianesthetic dose
[7] = target: T1, Human GABAA receptors composed of α1β2γ2L subunits (Homo sapiens, UniProt P14867+P47870); assay: two-microelectrode voltage clamp of GABAA receptor currents in Xenopus oocytes; assay type: cell-based; conditions: for enhancement of amplitudes of GABA-evoked currents: EC5-10 GABA, each anesthetic at its anesthetic EC50 (8 μM MOC-(R)-etomidate, 2 μM (R)-etomidate), n=6 oocytes; for direct activation of GABAA receptors: before application of GABA
T1 construct: expressed in transfected cells; host or cells: Xenopus laevis oocytes

patients = conditions: cited from earlier work
humans = conditions: Arden et al. 1986; cited from earlier work
Xenopus laevis tadpoles [8] = conditions: Husain et al. 2003, read-out: EC50 / free-aqueous concentration inducing loss of righting reflexes in tadpoles; cited from earlier work

T1 sequence (P14867 28-456): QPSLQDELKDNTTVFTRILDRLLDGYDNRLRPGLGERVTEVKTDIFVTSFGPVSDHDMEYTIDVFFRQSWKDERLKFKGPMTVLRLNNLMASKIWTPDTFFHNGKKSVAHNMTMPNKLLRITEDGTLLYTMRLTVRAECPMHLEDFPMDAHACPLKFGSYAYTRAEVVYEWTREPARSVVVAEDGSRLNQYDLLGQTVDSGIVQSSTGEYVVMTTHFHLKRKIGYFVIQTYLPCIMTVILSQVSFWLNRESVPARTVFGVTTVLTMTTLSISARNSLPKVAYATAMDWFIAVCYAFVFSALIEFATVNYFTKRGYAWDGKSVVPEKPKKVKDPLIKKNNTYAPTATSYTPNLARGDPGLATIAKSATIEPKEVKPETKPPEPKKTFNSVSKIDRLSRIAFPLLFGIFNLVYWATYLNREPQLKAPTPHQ
T1 sequence (P47870 25-512 limits assumed): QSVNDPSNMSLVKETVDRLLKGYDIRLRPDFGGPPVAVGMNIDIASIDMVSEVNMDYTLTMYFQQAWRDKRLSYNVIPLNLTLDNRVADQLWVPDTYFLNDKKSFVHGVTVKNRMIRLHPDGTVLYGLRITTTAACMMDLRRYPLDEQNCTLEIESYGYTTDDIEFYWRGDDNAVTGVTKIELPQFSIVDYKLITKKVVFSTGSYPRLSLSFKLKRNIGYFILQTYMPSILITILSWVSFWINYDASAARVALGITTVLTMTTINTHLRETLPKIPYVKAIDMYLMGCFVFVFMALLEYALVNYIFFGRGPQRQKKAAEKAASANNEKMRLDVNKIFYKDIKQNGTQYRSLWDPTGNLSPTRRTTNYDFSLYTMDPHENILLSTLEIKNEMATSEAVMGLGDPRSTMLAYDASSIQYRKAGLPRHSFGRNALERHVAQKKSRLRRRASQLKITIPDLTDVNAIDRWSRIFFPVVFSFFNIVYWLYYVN
T1 sequence (P18507 40-475 partner): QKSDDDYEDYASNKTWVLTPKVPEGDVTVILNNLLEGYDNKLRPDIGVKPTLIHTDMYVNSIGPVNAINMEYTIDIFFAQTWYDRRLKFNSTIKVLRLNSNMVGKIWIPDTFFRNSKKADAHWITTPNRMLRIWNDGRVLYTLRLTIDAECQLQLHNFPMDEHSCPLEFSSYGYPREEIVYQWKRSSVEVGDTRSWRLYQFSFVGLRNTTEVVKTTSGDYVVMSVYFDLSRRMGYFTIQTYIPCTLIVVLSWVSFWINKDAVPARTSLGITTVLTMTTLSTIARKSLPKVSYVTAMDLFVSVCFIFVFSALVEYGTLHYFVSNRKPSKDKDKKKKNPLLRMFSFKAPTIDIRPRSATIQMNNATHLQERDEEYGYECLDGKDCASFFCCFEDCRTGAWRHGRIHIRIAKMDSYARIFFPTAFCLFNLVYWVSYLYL

Structure (SMILES) | therapeutic index (animals) | half-life at 10 μM [1] [min] | ED50 (rats [3]) [mg/kg] | anesthetic toxicity in rats (rats [3]) | slope of duration of LORR versus logarithm of anesthetic dose (rats [3]) | increase in heart rate shortly after injection (rats [4]) [BPM] | ACTH1-24-stimulated corticosterone concentration versus vehicle (rats [6]) | enhancement of amplitudes of GABA-evoked currents [7] [%] | direct activation of GABAA receptors [7] | duration of significant effect on mean blood pressure (rats [4]) [s] | maximum decrease in mean blood pressure relative to baseline (rats [4]) [mmHg] | further results
CCCC(C)C1(CC)C(=O)NC(=S)NC1=O (stereo not shown) [thiopental] | 4.6 | – | – | – | – | – | – | – | – | – | – | –
O=C1CC2(CCCC2)CC(=O)N1CCCCN1CCN(c2ncccn2)CC1 [buspirone] | – | 15.4 | – | – | – | – | – | – | – | – | – | –
CCOC(=O)c1cncn1[C@H](C)c1ccccc1 (stereo in doubt) [(R)-etomidate, ethyl 3-(1-phenylethyl)imidazole-4-carboxylate] | – | – | 1 ± 0.03 | no obvious anesthetic toxicity | 27±7 | 49±67 | – | – | – | – | – | duration of significant effect on mean blood pressure (rats [2]): 6.5 min; maximum decrease in mean blood pressure relative to baseline (rats [2]): −36±11 mmHg
COC(=O)CCOC(=O)c1cncn1[C@H](C)c1ccccc1 [MOC-(R)-etomidate, (R)-3-Methoxy-3-oxopropyl1-(1-phenylethyl)-1H-imidazole-5-carboxylate] | – | 4.2 | 5.2 ± 1 | no obvious anesthetic toxicity | 2.8±0.4 | 24±33 | not different from those that had received only vehicle; also recorded: no reduction; also recorded: unchanged versus control | 450±130 | evoked small currents | 30 | −11±15 | toxicity in tadpoles (Xenopus laevis tadpoles [5]; 0.1-128 μM, recovery in fresh oxygenated water): No evidence of toxicity was observed; EC50 (Xenopus laevis tadpoles [5]; Xenopus laevis, read-out: anesthetic EC50 (loss of righting reflexes)): 8000 ± 2000 nM; fraction of tadpoles anesthetized (Xenopus laevis tadpoles [5]; highest concentrations, 48-128 μM): all tadpoles were anesthetized; duration of LORR shorter versus propofol or (R)-etomidate (rats [3]; equianesthetic doses): ~10 fold; anesthetic potency relative to (R)-etomidate's potency (rats [3]; two species (tadpoles, rats)): ¼^th-⅕^th; duration of reduction in blood pressure (rats [4]; summary): 30 s; percent of original concentration remaining ([1]; by 40 min): < 1%; percent metabolized ([1]; by 40 min, +NADPH, 37° C.): more than 99%; concentration remaining ([1]; by 40 min, start 10 μM): < 100 nM; rate of metabolism relative to (R)-etomidate [1]: at least 100 fold; rate of metabolism relative to (R)-etomidate ([1]; listed as MOC-(R)-Etomidate): > 100 fold
CC(C)c1cccc(C(C)C)c1O [propofol] | 3.1 | – | 4.1 ± 0.3 | no obvious anesthetic toxicity | 22±4 | 64±56 | – | – | – | 420 | −51±19 | –
CCOC(=O)c1cncn1[C@H](C)c1ccccc1 [(R)-etomidate, ethyl 3-(1-phenylethyl)imidazole-4-carboxylate] | – | – | – | – | – | – | significantly lower; also recorded: significantly reduced | 660±240 | evoked small currents | – | – | duration of adrenal suppression after single bolus induction dose (patients; critically ill patients): ≥ 24 h; persistence of adrenal insufficiency after discontinuing prolonged infusion (patients; doses producing general anesthesia): more than 4 days; free-aqueous concentration inducing loss of responsiveness (humans): ~2 µM; EC50 (Xenopus laevis tadpoles [8]): ~2000 nM and 2000 nM
